Laboratory results published in patent publication US8465983B1, “Detection and delivery systems utilizing supported lipid bilayers” (priority 2005, dated 2013).

Columns and labels:
anionic phospholipids [1] = assay: Affinity of PLA2 for anionic phospholipids (Kim et al.); format: binding
anionic phospholipids [2] = settings: Kim et al. 1997; cited from earlier work
[3] = test system: cholesterol (10%, molar ratio) containing lipid membrane on porous particles; assay: Release of dye from porous particles coated with cholesterol-containing lipid membrane by streptolysin-O; format: biochemical; settings: even at low concentrations; 25° C. and 37° C.
Protocol: FIGS. 22A-B illustrate one aspect of the invention—drug and/or dye release from the present lipid-coated particles. FIG. 22A is a graph showing release of dye from porous particles (containing dye inside) where the particles are coated with a cholesterol (10%, molar ratio) containing lipid membrane. As increasing amounts of streptolysin-O are added (solid square symbols represent lower concentration than solid ovals), more dye is released. […] FIG. 22B illustrates how streptolysin-O can disrupt cholesterol-containing lipid bilayer membranes, leading to release of materials (e.g., drugs or antibiotics) enclosed within the membrane. Streptolysin-O is an anti-microbial protein that preferably binds to cholesterol and can disrupt cholesterol-containing membranes.

[4] = Superquenching of MS-PPE by AQS, flow cytometry; settings: 10 μM AQS, 2.5×10^5 MS-PPE in 200 μL PBS
Protocol: Bead suspensions of 2.5×10^5 PPE-coated microspheres in 200 μL PBS were analyzed using a FACScan flow cytometer (Becton-Dickinson, Sunnyvale, Calif.) with excitation at 488 nm. Fluorescence signals were acquired on the FL-1 channel (525 nm) using log amplification and analyzed with the CellQuest software.
The effect of the quencher, AQS, on the fluorescence of MS-PPE was determined by adding different concentrations of AQS and immediately reading the fluorescence by flow cytometry (FIG. 14A) or by fluorimetry (FIG. 14B). Adding AQS to the suspension of MS-PPE decreased the fluorescence emission intensity in an AQS-concentration-dependent manner (FIGS. 14A and B). The quenching of the MS-PPE as detected by both fluorimetry and flow cytometry, could be described by a conventional Stern-Volmer equation: Io/I=1+KSV[Q] where Io and I represent the fluorescence intensities in the absence and in presence of the AQS, and KSV is the Stern-Volmer quenching constant. However, the fluorimeter was not sensitive enough to detect the lower fluorescence (higher quenching) when AQS was added to MS-PPE at concentrations higher than 5 μM. The values of KSV obtained by flow cytometry and fluorimetry were 0.78×10^6 M^−1, and 0.79×10^6 M^−1, respectively. The correlation coefficient for the more sensitive flow cytometry was higher than that obtained by fluorimetry. […]

[5] = test system: DMPG lipid bilayer supported on MS-PPE; assay: Superquenching flow cytometric assay for disruption of DMPG lipid bilayer supported on MS-PPE; format: biochemical; settings: 10 μM AQS, no disruptor, real-time kinetics
Protocol: Lipid bilayers were disrupted by adding TRITON X-100 detergent to the bead suspension to a final concentration of 0.25% (w/v).
Bead suspensions of 2.5×10^5 DMPG-coated MS-PPE in 200 μL of PBS were analyzed using a FACScan flow cytometer (Becton-Dickinson, Sunnyvale, Calif.) with excitation at 488 nm. Fluorescence signals were acquired on FL-1 channel (525 nm) using log amplification and analyzed with the CellQuest software. Kinetic analysis of disruption of supported lipid bilayer by melittin was performed by acquiring real-time data with continuous mixing of samples (10^6 MS-PPE in 800 μl of PBS) using a magnetic stirrer. The raw data were analyzed using IDL Query software developed by Bruce Edwards (Cancer Center, University of New Mexico, Albuquerque, N. Mex.).
Because an anionic lipid was used to form a lipid bilayer around MS-PPE, it was expected that MLT will disrupt the DMPG lipid bilayer by such a detergent-like action. This was tested by adding 10 μM AQS to DMPG-coated MS-PPE followed by treatment with one of the following: TRITON X-100 detergent, synthetic MLT (sMLT), or natural MLT (nMLT) and immediately reading the fluorescence by flow cytometry. […] These histograms resemble the ones reported previously for MS-PPE, without a lipid coating, in absence and in presence of AQS.
From FIG. 18, the association constant (corresponding to the reciprocal of the point of half saturation) for nMLT and sMLT with DMPG were 5×10^6 M^−1 and 1.7×10^6 M^−1, respectively. […] Lower concentrations of nMLT, in comparison to sMLT, were required to disrupt the DMPG lipid bilayer. This might be attributed to the fact that nMLT contains some phospholipase A2 (PLA2) as a contaminant. PLA2 has a high affinity for anionic phospholipids, with an association constant of 0.5×10^10 M^−1 (Kim et al., Anal. Chem. 250, 109-116 (1997)), which is about 3000 fold higher than that of MLT. Although PLA2 activity requires calcium, which is not present in the experimental system, it has been reported that even upon addition of EDTA to natural MLT, PLA2 maintains its activity, probably due to formation of a tight complex with calcium with PLA2 (Dempsey, C. E. Biochim. Biophys. Acta 1990, 1031, 143-161).
The kinetics of disruption of supported lipid bilayer by MLT were monitored by measuring real-time changes in fluorescence intensity by flow cytometry (FIG. 19). Suspensions of 10^6 DMPG-coated MS-PPE in 800 μL of PBS were treated with AQS at a final concentration of 10 μM, then with either sMLT, TRITON X-100 detergent, or no treatment. […] Treatment with sMLT in the absence of AQS led to an increase in normalized fluorescence (FIG. 19, trace A). This can be attributed to disruption of the lipid bilayer by sMLT, and is consistent with a reversal of the slight quenching of fluorescence caused by the formation of a DMPG lipid bilayer over MS-PPE. Addition of AQS alone to DMPG-coated MS-PPE (FIG. 19, trace C) led to a 20% reduction in fluorescence as reported earlier. Addition of TRITON X-100 detergent to DMPG-coated MS-PPE after the addition of AQS (first dip in trace E, FIG. 19) caused immediate decrease in fluorescence to ˜10% of its original value (second dip in trace E, FIG. 19). In contrast, addition of sMLT, after the addition of AQS, (FIG. 19, trace D) led to a gradual reduction of fluorescence intensity to ˜20% of the original value. Although MLT forms dimers at high concentrations (Dempsey, C. E. Biochim. Biophys. Acta 1990, 1031, 143-161), it is monomeric at the concentrations used in this study. On the other hand, TRITON X-100 detergent forms micelles at the concentration used in this study.

## PLA2: phospholipase A2, lipolytic enzyme, contaminant of natural melittin
Anionic phospholipids [1]
  association constant higher than that of MLT: about 3000 fold
Anionic phospholipids [2]
  association constant: 5e+09 M⁻¹

## streptolysin-O: anti-microbial protein that preferably binds to cholesterol and can disrupt cholesterol-containing membranes
[3]
  release of dye compared with control without streptolysin-O: greater than observed for control

## O=C1c2ccc(S(=O)(=O)O)cc2C(=O)c2ccc(S(=O)(=O)O)cc21 [AQS, 9,10-anthraquinone-2,6-disulfonic acid]
[4]
  reduction in fluorescence (normalized mean channel fluorescence): 90%
[5]
  reduction in fluorescence of DMPG-coated MS-PPE on addition of AQS alone: 20%
